# Key:
# [1] = biological target: T1, Solute carrier family 22 member 7 (Rattus norvegicus, UniProt Q5RLM2); assay: (§1) TP_TRANSPORTER: Northern blot in vivo, kidney of Wistar rat; assay type: functional, organism-based
# T1 sequence (Q5RLM2 whole entry): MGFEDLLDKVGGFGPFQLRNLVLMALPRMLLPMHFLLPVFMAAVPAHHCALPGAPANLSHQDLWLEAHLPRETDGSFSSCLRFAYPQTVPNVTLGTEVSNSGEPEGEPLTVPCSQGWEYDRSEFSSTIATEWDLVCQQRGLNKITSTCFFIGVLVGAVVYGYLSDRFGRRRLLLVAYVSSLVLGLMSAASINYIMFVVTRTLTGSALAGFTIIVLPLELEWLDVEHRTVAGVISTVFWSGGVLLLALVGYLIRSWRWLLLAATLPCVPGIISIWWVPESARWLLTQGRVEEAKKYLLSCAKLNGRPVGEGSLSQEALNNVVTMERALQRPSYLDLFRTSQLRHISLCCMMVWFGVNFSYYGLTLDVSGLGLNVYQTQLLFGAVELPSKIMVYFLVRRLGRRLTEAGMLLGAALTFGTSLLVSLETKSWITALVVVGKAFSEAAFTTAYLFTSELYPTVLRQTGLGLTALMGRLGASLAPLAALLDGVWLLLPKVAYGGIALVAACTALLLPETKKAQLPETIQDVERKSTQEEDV
# [2] = biological target: T2, Organic anion transporter 3 (Rattus norvegicus, UniProt Q9R1U7); assay: as §1; assay type: functional, organism-based
# T2 sequence (Q9R1U7 whole entry): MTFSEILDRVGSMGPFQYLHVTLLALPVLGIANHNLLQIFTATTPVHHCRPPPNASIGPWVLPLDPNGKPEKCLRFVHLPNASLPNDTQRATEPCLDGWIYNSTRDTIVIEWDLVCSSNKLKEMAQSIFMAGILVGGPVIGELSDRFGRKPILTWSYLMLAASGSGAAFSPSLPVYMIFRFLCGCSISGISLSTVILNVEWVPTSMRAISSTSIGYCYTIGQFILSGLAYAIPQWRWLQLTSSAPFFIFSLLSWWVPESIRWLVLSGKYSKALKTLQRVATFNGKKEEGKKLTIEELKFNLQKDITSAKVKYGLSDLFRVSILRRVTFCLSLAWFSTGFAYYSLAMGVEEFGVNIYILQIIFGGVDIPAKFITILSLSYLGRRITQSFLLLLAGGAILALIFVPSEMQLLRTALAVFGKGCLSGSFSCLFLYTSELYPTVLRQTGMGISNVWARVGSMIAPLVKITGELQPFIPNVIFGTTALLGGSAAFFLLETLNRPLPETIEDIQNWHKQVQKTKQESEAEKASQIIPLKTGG
smiles,measurement,setting,value
C[C@]12CC[C@H]3[C@@H](CCC4=CC(=O)CC[C@@]43C)[C@@H]1CC[C@@H]2O [TESTOSTERONE],Activity,[1],inducer [Decrease]
same,Activity,[2],inducer [+]
